{
  "source": "patent US20020132855A1",
  "about": "“Use of acetaminophen to prevent and treat arteriosclerosis” (priority 2000, published 2002)",
  "key": {"[1]": {"tested_on": "fatty streaks in the blood vessels of rabbits", "experiment": "Fatty streak formation in aorta of cholesterol-fed rabbits", "format": "in vivo, New Zealand white rabbits", "conditions": "rabbits on 1% cholesterol chow, 12 weeks", "source_text": "This investigation used an experimental system in which fatty streaks are induced in the blood vessels of rabbits by incorporation of 1 % cholesterol in their food. For further detail, see A. A. Taylor and C. V. Smith, Circulation 18 I-697 (1999). Similar experimental systems have been used previously for the evaluation of the efficacy of pharmaceutical compounds for treating, preventing, and regressing atherosclerosis. For example, see Daugherty, A., et al., “Probucol Attentuates the Development of Aortic Atherosclerosis in Cholesterol-Fed Rabbits,” 98(2) Br. J. Pharm. 612-18 (1989), which is incorporated by reference herein.\n(§1) Twenty-three, six-week old male New Zealand white rabbits obtained from Myrtle's Rabbitry (Houston, Tex.) and weighing between about 1.8 kg and 2 kg were separated into two groups: Group 1 (experimental) having 12 rabbit/group and Group 2 (control) having 11 rabbits/group. At the beginning of the study, all rabbits were allowed water ad libitum and ate normal rabbit chow.\nAfter a two week acclimatization period, all of the rabbits were then placed on normal rabbit chow supplemented with 1% cholesterol (ICN Biochemicals, Inc., Costa Mesa, Calif.), in order to induce fatty streak formation in their blood vessel walls. […] The cages were monitored daily in order to assure that each rabbit consumed the contents of his respective water bottle. […]"}, "oxysterols in LDL": {"tested_on": "oxysterols in LDL", "experiment": "Oxysterol concentrations in LDL isolated from cholesterol-fed rabbits", "format": "in vivo, New Zealand white rabbits", "experimental": "LDL Isolation: Plasma LDL was prepared by ultracentrifuation of a blood sample as disclosed in Havel, “The Distribution and Chemical Composition of Ultracentrifugally Separated Lpoproteins in Human Serum,” 34 JI. Clin. Inv. 1345 […], within a density cutoff of 1.020 g/ml to 1.055 g/ml and with the addition of 0.5 mg/ml ethylenediaminetetracetic acid (‘EDTA’) thereto. After adding a sample of this mixture to a semi-permable bag, the LDL was dialyzed therefrom against a vacuum-degassed 0.01 M Tris solution containing 0.15 M NaCl and 0.1 mg/ml EDTA under dark conditions and at 4° C. for 48 hours, followed by dialysis overnight using the same equipment but with a 0.01M phosphate buffer solution containing 0.15 M NaCl and no EDTA. The dialyzed LDL protein concentrations were then determined via the method set forth in Lowry, ‘Protein Measurement with the Folin Phenol Reagent,’ 226 J. Biol. Chem. 497-509 (1951).\nas §1\nAfter a two week acclimatization period, all of the rabbits were then placed on normal rabbit chow supplemented with 1% cholesterol (ICN Biochemicals, Inc., Costa Mesa, Calif.), in order to induce fatty streak formation in their blood vessel walls. Rabbits in Group 1 were switched from water to an acetaminophen solution for about a 40 mg/kgrabbit APAP dose. A 40 mg/kg dose of APAP in a 2.5 kg rabbit is equivalent to about a 2800 mg/day dose in a 70 kg human. The other group of rabbits remained on water for the remainder of the study. The cages were monitored daily in order to assure that each rabbit consumed the contents of his respective water bottle.\nOxo-sterol concentrations in the isolated LDL were also determined by the method set forth in Hughes, et. al., “Cytotoxicity of Oxidized LDL to Porcine Aortic Smooth Muscle Cells Is Associated with the Oxysterols 7-ketocholesterol and 7-hydrocholesterol,” 14(7) Arterioscler. Thromb. 1177-85 (1994). In general, the oxysterols were initially separated from the LDL via a Bligh and Dyer extraction followed by extraction using amino-propyl solid phase extraction columns available from Varian Instruments in order to further separate the lipids by polarity. The oxysterol-containing eluents were then dried therefrom under a nitrogen atmosphere and derivatized with N,O-bis(trimethylsilyl)trifluooroacetamide) (“BSTFA”) in a test tube. 10 μl of cholestane was added to the dried eluent at the time of derivatization as an internal standard. The derivatized samples were then analyzed using a gas chromatograph column having a flame ionization detector .The column program included initial temperature of 250° C. for 2 minutes, followed by temperature increases of 8° C./minute to 325° C., and then a final 8 minute temperature hold at 325° C. The amount of oxysterols in the LDL were then quantitated using known standards by ratio of the peak area of the oxysterol to cholestane. The concentrations of oxysterols are set forth below in Table B: […]"}, "[2]": {"experiment": "Total plasma cholesterol levels in cholesterol-fed rabbits", "format": "in vivo, New Zealand white rabbits", "source_text": "Twenty-three, six-week old male New Zealand white rabbits obtained from Myrtle's Rabbitry (Houston, Tex.) and weighing between about 1.8 kg and 2 kg were separated into two groups: Group 1 (experimental) having 12 rabbit/group and Group 2 (control) having 11 rabbits/group. At the beginning of the study, all rabbits were allowed water ad libitum and ate normal rabbit chow. After a two week acclimatization period, all of the rabbits were then placed on normal rabbit chow supplemented with 1% cholesterol (ICN Biochemicals, Inc., Costa Mesa, Calif.), in order to induce fatty streak formation in their blood vessel walls. Rabbits in Group 1 were switched from water to an acetaminophen solution for about a 40 mg/kgrabbit APAP dose. A 40 mg/kg dose of APAP in a 2.5 kg rabbit is equivalent to about a 2800 mg/day dose in a 70 kg human. The other group of rabbits remained on water for the remainder of the study. The cages were monitored daily in order to assure that each rabbit consumed the contents of his respective water bottle. After cannulating the femoral artery and advancing into the distal aorta region of each rabbit, blood was aspirated therefrom for isolation of LDL fraction. The blood of each rabbit was drawn into 1000 U of Heparin sodium in order to prevent coagulation, then the plasma was separated therefrom via centrifugation at 2000 rpm for ten minutes. […]"}, "isolated LDL [3]": {"tested_on": "isolated LDL", "experiment": "Dienes analysis of copper-mediated oxidation of isolated LDL", "parameters": "species or system New Zealand white rabbits", "conditions": "0.1 mg/ml LDL from APAP-fed rabbits, 5 μM CuSO4, 37° C., 6 hour period, FIG. 1", "experimental": "LDL Isolation: Plasma LDL was prepared by ultracentrifuation of a blood sample as disclosed in Havel, “The Distribution and Chemical Composition of Ultracentrifugally Separated Lpoproteins in Human Serum,” 34 JI. Clin. Inv. 1345 […], within a density cutoff of 1.020 g/ml to 1.055 g/ml and with the addition of 0.5 mg/ml ethylenediaminetetracetic acid ('EDTA') thereto. After adding a sample of this mixture to a semi-permable bag, the LDL was dialyzed therefrom against a vacuum-degassed 0.01 M Tris solution containing 0.15 M NaCl and 0.1 mg/ml EDTA under dark conditions and at 4° C. for 48 hours, followed by dialysis overnight using the same equipment but with a 0.01M phosphate buffer solution containing 0.15 M NaCl and no EDTA. The dialyzed LDL protein concentrations were then determined via the method set forth in Lowry, 'Protein Measurement with the Folin Phenol Reagent,' 226 J. Biol. Chem. 497-509 (1951). […] Analysis: The kinetics of these copper-mediated oxidation reactions were followed at 10 minute intervals for a total period of 6 hours by monitoring changes in absorbance at 234 nm of each mixture using a Model UV-2101PC spectrophotometer available from Shimadzu. […]"}, "isolated LDL [4]": {"tested_on": "isolated LDL", "experiment": "TBARS analysis of copper-mediated oxidation of isolated LDL", "parameters": "species or system New Zealand white rabbits", "conditions": "0.1 mg/ml LDL from APAP-fed rabbits, 5 μM CuSO4, 37° C., 4, 8 and 12 hours", "experimental": "LDL Isolation: Plasma LDL was prepared by ultracentrifuation of a blood sample as disclosed in Havel, “The Distribution and Chemical Composition of Ultracentrifugally Separated Lpoproteins in Human Serum,” 34 JI. Clin. Inv. 1345 […], within a density cutoff of 1.020 g/ml to 1.055 g/ml and with the addition of 0.5 mg/ml ethylenediaminetetracetic acid (‘EDTA’) thereto. After adding a sample of this mixture to a semi-permable bag, the LDL was dialyzed therefrom against a vacuum-degassed 0.01 M Tris solution containing 0.15 M NaCl and 0.1 mg/ml EDTA under dark conditions and at 4° C. for 48 hours, followed by dialysis overnight using the same equipment but with a 0.01M phosphate buffer solution containing 0.15 M NaCl and no EDTA. The dialyzed LDL protein concentrations were then determined via the method set forth in Lowry, ‘Protein Measurement with the Folin Phenol Reagent,’ 226 J. Biol. Chem. 497-509 (1951). […] The concentrations of thiobarbituric acid reactive substances (“TBARS”) in each mixture were then measured with the same spectrophotometer as described by Streinbrecher, et al., “Decrease in reactive amino groups during oxidation or endothelial cell modification of LDL,” Arteriosclerosis 1987;7:135-143."}, "[5]": {"tested_on": "low density lipoprotein (LDL)", "conditions": "literature report; cited from earlier work"}, "[6]": {"conditions": "APAP-fed versus control rabbits"}},
  "data": [
    {"compound": "CC(=O)Nc1ccc(O)cc1", "note": "[APAP, N-(4-hydroxyphenyl) acetamide]", "values": [
      {"measurement": "Average Fatty Streak/Total Aortic Area", "setting": "[1]; about 40 mg/kg APAP in drinking water, control 0.58 + 0.06", "value": "0.32 + 0.05"},
      {"measurement": "Aortic fatty streak areas versus control", "setting": "[1]; about 40 mg/kg APAP, p<0.001", "value": "significantly reduced aortic fatty streak areas"},
      {"measurement": "Average 5b, 6b-epoxide concentration in LDL", "setting": "oxysterols in LDL; APAP-fed rabbits, 1% cholesterol chow, 12 weeks, control 0.24 + 0.05", "value": "0.12 + 0.13 nmol/mg LDL"},
      {"measurement": "Average 5a, 6a-epoxide concentration in LDL", "setting": "oxysterols in LDL; APAP-fed rabbits, 1% cholesterol chow, 12 weeks, control 0.49 + 0.08", "value": "0.11 + 0.05 nmol/mg LDL"},
      {"measurement": "Average 7bOH-cholesterol concentration in LDL", "setting": "oxysterols in LDL; APAP-fed rabbits, 1% cholesterol chow, 12 weeks, control 1.01 + 0.26", "value": "0.32 + 0.07 nmol/mg LDL"},
      {"measurement": "Average 7aOH-cholesterol concentration in LDL", "setting": "oxysterols in LDL; APAP-fed rabbits, 1% cholesterol chow, 12 weeks, control 2.31 + 0.62", "value": "0.58 + 0.12 nmol/mg LDL"},
      {"measurement": "Average 7keto-cholesterol concentration in LDL", "setting": "oxysterols in LDL; APAP-fed rabbits, 1% cholesterol chow, 12 weeks, control 3.86 + 1.72", "value": "0.41 + 0.14 nmol/mg LDL"},
      {"measurement": "Decrease in 7-alpha hydroxycholesterol values", "setting": "oxysterols in LDL; [6]", "value": 4, "unit": "fold"},
      {"measurement": "Decrease in 7-beta hydroxycholesterol values", "setting": "oxysterols in LDL; [6]", "value": 3, "unit": "fold"},
      {"measurement": "Decrease in 7-keto cholesterol values", "setting": "oxysterols in LDL; [6]", "value": 9, "unit": "fold"},
      {"measurement": "Average Circulating total Plasma Cholesterol Level", "setting": "[2]; APAP-fed rabbits, 1% cholesterol chow, 12 weeks, control 1441 ± 87", "value": "1592 ± 43", "unit": "mg/dL"},
      {"measurement": "Amount of circulating cholesterol in the blood plasma versus control", "setting": "[2]; [6]", "value": "did not produce a significant difference"},
      {"measurement": "Absorbance at 234 nm of isolated LDL (dienes) versus control", "setting": "isolated LDL [3]", "value": "lower absorbance values"},
      {"measurement": "TBARS formed during the LDL oxidation versus control", "setting": "isolated LDL [4]", "value": "comparable"},
      {"measurement": "LDL lipid oxidation in vitro", "setting": "[5]", "value": "prevent low density lipoprotein (“LDL”) lipid oxidation in vitro"}
    ]}
  ]
}
